Assay results reported in patent US11116774B2, “Modulators of toll-like receptors for the treatment of HIV” (Gilead Sciences, Inc., priority 2014, dated 2021).
Values joined by “and” are separate entries in the source; they are usually repeats but may differ in a detail not shown here. Equal values may be shown once.

Tested on: HIV-infected CD4 T cells (HIV-1 clinical isolate HT593)
Test: Killing of HIV-infected CD4 T cells by combination of Example 49 and HIV antibody PGT121 (Example 218)
Format: cell-based, human
Settings: 5 days, combined with PGT121, two donors
Description: PBMCs from […] (AllCells: Donor IDs A4593, A4596, A4606) were isolated, as described previously. PBMCs were treated with DMSO or with the compound of Example 49 (GS-9620) at 0.1 uM or 1 uM in replicate culture sets of 8 for 5 days. In parallel, total CD4 T cells were isolated from each donors' PBMCs using the EasySep Human CD4+ T cell Enrichment Kit (Stemcell Technologies). CD4 T cells were infected in bulk with the HIV-1 clinical isolate HT593 (NIH AIDS Reagent Program) using 50-100 ng p24/million CD4 T cells by spinfecting at 1200×g for 2 hours. HIV-infected CD4 T cells were incubated for 5 days at 37° C. in RPMI plus 10% FBS with 30 U/mL IL-2 (Invitrogen). After 5 days in culture, HIV-infected CD4 T cells were washed, counted, and added to PBMCs from the autologous donor at a ratio of 20 PBMCs to 1 CD4 T cell (20:1). To each co-culture replicate, HIV antibody PGT121 (Gilead Sciences, Inc.) was added at concentrations from 6.7e-5 nM to 6.7e2 nM. Co-cultures were incubated with or without HIV antibody for 1 day at 37° C.
Co-cultures were collected and stained with live/dead Fixable Aqua Dead Cell Stain (Invitrogen) and PE-Cy7-labeled antibody to CD4 (BD Biosciences). Cells were fixed and permeabilized, as described previously, and stained with PE labeled antibody to HIV Gag protein p24 (Beckman Coulter). FACS was performed on a LSR Fortessa (BD Biosciences) and data analysis was done with FlowJo software (TreeStar). Data was plotted and statistical analysis was done with GraphPad Prism software (GraphPad). Killing of HIV-infected CD4 T cells was calculated as a reduction of CD4+p24+ T cells at each PGT121 concentration relative to cultures without PGT121.

Question: CCCCOc1nc(N)c2c(n1)N(Cc1cccc(CN3CCCC3)c1)CC(=O)N2 [Example 49] was tested. Which “increase of AUC relative to DMSO controls” value (Example 49 0.1 uM) did it give?
Answer: 32% and 52%

Question: What about the “increase of maximal killing relative to DMSO controls” value (Example 49 0.1 uM) of the same compound?
Answer: 30% and 38%

Question: What about the “increase of AUC relative to DMSO controls” value (Example 49 1 uM) of the same compound?
Answer: 52% and 73%

Question: What about the “increase of maximal killing relative to DMSO controls” value (Example 49 1 uM) of the same compound?
Answer: 50% and 48%
